Our source for the MIC values is article PMC4627656, “Combining Metabolite-Based Pharmacophores with Bayesian Machine Learning Models for Mycobacterium tuberculosis Drug Discovery” (PLoS ONE, 2015).

≈ marks a conversion by molar mass, not a printed value.

One may read the MIC as the lowest concentration found to suppress growth.

Common to all, as to type: cell-based
Test [1] concerns H37Rv (laboratory strain). Nature of the test: AlamarBlue MIC (absorbance), strain panel: H37Rv. As to conditions: Mycobacterium tuberculosis, drug resistance: None. A general note: The colour change of resazurin is a common sign of viable cells or microbes.
The test system of another test is clinical strain 210. The test can be described thus: AlamarBlue MIC (absorbance), strain panel: 210. As to conditions: Mycobacterium tuberculosis, drug resistance: None.
Test [2] deals with clinical MDR-TB strain 91. Nature of the test: AlamarBlue MIC (absorbance), strain panel: 91. As to conditions: Mycobacterium tuberculosis, read-out: MIC, strain 91.
Test [3] has as its system clinical MDR-TB strain 36. Nature of the test: AlamarBlue MIC (absorbance), strain panel: 36. As to conditions: Mycobacterium tuberculosis, read-out: MIC, strain 36.
In test [4] the test system is clinical MDR-TB strain 116. Nature of the test: AlamarBlue MIC (absorbance), strain panel: 116. As to conditions: Mycobacterium tuberculosis, read-out: MIC, strain 116.
Test [5] has as its system clinical MDR-TB strain 31. The test can be described thus: AlamarBlue MIC (absorbance), strain panel: 31. As to conditions: Mycobacterium tuberculosis, read-out: MIC, strain 31.

As to `CCCCC(=O)c1c(C)[n+]([O-])c2ccc([N+](=O)[O-])cc2[n+]1[O-]` [SRI50], the MIC was 0.16 µg/mL (≈ 0.524 µM) in test [1]; 0.31 µg/mL (≈ 1.02 µM) against clinical strain 210; 0.16 µg/mL (≈ 0.524 µM) in test [2]; 0.16 µg/mL (≈ 0.524 µM) in test [3]; 0.16 µg/mL (≈ 0.524 µM) in test [4]; 0.31 µg/mL (≈ 1.02 µM) in test [5].
